Where a name gives a salt, the structure may show the parent alone. Activity calls are given as the source filed them.
What was measured:
[1] = biological target: Melanocortin receptor 4 (Homo sapiens, UniProt P32245); type: functional, cell-based;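 also: Cell-based assay with luminescence read-out, confirmatory dose-response testing for agonist activity of biased ligands at MC4R; human U2OS cells with tagged receptor and beta-arrestin; potency of agonists that increase receptor coupling to beta-arrestin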
Melanocortin receptor 4, sequence (P32245 whole entry): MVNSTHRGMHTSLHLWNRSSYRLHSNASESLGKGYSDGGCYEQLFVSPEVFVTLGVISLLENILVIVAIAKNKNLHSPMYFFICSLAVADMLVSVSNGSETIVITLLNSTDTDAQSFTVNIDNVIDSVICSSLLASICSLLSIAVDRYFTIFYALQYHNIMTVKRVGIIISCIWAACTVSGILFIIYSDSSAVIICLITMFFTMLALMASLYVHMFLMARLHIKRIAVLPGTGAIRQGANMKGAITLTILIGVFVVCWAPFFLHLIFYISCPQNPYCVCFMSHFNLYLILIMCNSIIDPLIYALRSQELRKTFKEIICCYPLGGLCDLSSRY

[2] = bead-based luminescence quenchers, dual-tagged ARNT – biochemical, AlphaScreen, cherry-pick, artefact control for ARNT-TACC3 interaction inhibitor project, dose response (AID 651705); type: functional;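 also: AlphaScreen bead proximity signal that flags compounds interfering with the detection technology; potency reflects signal decrease which marks the compound as an assay artifact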
[3] = IC50 of Artemis nuclease activity blockers – biochemical, fluorescence intensity, dose response (AID 720701); type: functional;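 also: Artemis endonuclease enzyme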
[4] = NIH-3T3 fibroblast cytotoxicity, dose response, cytotoxicity control, cell-based, fluorescence, Alamar Blue, secondary assay (AID 2327); type: functional;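 also: NIH-3T3 mouse fibroblasts cultured with fluconazole at 8 µg/mL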
[5] = fluconazole-exposed Candida albicans growth modulators – fluorescence, retest, confirmation (AID 2467); type: functional, cell-based
[6] = Trypanosoma cruzi growth suppression in host cells – NIH3T3 host cells, beta-gal luminescence, confirmation (AID 2044); type: functional, cell-based;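 also: intracellular parasites grown in NIH/3T3 mouse fibroblasts as host cells; luminescent beta-galactosidase reporter signal from transgenic T. cruzi replicating inside host cells; inhibitors lower the luminescence signal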
[7] = biological target: T1, Serine/threonine-protein phosphatase (Candida dubliniensis (strain CD36 / CBS 7987 / NCPF 3949 / NRRLY-17841) (Yeast), UniProt B9W6M3); experiment: blockers of CaCl2-induced CDRE-lacZ signaling – S. cerevisiae, luminescence, secondary, dose response (AID 2388); type: functional, cell-based;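 also: yeast reporter cells carrying a calcineurin-responsive lacZ construct stimulated with calcium chloride; luminescent beta-galactosidase reporter signal in whole cells rather than isolated phosphatase activity; potency for inhibition where a drop in reporter signal means calcineurin blockade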
T1 sequence (B9W6M3 whole entry): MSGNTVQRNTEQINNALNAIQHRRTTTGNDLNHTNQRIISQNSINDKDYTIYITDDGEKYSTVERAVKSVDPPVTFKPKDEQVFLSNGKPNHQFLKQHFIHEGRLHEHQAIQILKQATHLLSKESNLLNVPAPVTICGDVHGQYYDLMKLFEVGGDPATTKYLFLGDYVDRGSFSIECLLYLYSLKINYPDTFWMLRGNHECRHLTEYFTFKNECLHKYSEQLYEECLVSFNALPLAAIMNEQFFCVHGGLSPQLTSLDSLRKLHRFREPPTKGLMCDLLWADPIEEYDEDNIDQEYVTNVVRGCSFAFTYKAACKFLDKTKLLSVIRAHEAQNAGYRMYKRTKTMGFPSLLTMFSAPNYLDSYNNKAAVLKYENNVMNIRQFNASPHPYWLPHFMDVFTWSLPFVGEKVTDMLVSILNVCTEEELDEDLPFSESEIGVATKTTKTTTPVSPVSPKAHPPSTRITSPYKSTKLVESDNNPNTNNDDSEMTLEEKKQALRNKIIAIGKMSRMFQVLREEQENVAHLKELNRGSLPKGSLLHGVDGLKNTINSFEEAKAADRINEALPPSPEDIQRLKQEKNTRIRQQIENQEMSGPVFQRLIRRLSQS

[8] = NIH3T3 cell viability loss – ATP luminescence, mouse fibroblasts, counter-screen, dose response (AID 2010); type: functional, cell-based;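 also: cells exposed to compound for about 90 hours before reading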
[9] = biological target: Beta-galactosidase (Escherichia coli, UniProt Q8VNN2); experiment: detection-enzyme interference by beta-gal modulators – biochemical, E. coli enzyme, set 3, artefact control for CCR6 antagonist project, dose response (AID 504712); type: functional
[10] = biological target: Heat shock protein HSP 90-alpha (Homo sapiens, UniProt P07900); type: functional, organism-based
[11] = biological target: ATP-dependent molecular chaperone HSP82 (Candida albicans (strain WO-1) (Yeast), UniProt C4YTQ8); experiment: steroid-induced GRE reporter decrease in yeast – S. cerevisiae, luminescence, Hsp90 inhibitor project, dose response (AID 2400); type: functional, cell-based;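 also: beta-galactosidase luminescence from glucocorticoid response element reporter as proxy for Hsp90 function; inhibitor potency where signal loss means Hsp90 inhibition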
ATP-dependent molecular chaperone HSP82, sequence (C4YTQ8 whole entry): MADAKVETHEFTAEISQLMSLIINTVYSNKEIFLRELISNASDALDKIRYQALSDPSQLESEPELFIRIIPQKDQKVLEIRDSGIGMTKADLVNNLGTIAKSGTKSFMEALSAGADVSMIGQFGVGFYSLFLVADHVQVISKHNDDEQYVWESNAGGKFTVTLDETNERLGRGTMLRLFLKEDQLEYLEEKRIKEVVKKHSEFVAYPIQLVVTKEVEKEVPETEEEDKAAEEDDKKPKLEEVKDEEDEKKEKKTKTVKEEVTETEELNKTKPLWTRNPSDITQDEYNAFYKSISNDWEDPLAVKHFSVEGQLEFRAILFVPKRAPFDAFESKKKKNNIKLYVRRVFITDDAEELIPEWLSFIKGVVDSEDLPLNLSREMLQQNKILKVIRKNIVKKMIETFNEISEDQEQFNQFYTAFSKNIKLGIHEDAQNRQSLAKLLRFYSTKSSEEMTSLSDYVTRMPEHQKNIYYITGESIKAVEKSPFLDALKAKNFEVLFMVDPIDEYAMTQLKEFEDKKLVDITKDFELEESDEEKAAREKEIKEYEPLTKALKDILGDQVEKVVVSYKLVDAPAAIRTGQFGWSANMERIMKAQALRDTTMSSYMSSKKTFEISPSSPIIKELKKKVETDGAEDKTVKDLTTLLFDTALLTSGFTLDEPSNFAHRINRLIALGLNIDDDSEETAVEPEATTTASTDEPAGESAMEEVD

[12] = mammalian cell viability loss – Alamar Blue, dry powder, cytotoxicity control for antifungal single agent project, dose response (AID 602188); type: functional, cell-based
[13] = biological target: Ras and Rab interactor 1/Tyrosine-protein kinase ABL1 (Homo sapiens, UniProt P00519+Q13671); type: functional;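 also: biochemical TR-FRET dose-response test measuring inhibition of binding between Rin1 and Abl proteins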
[14] = biological target: 26S proteasome non-ATPase regulatory subunit 14 (Homo sapiens, UniProt O00487); experiment: inhibition of proteasome subunit RPN11 – biochemical, fluorescence polarization, uHTS hits, confirmation (AID 602368); type: functional
26S proteasome non-ATPase regulatory subunit 14, sequence (O00487 whole entry): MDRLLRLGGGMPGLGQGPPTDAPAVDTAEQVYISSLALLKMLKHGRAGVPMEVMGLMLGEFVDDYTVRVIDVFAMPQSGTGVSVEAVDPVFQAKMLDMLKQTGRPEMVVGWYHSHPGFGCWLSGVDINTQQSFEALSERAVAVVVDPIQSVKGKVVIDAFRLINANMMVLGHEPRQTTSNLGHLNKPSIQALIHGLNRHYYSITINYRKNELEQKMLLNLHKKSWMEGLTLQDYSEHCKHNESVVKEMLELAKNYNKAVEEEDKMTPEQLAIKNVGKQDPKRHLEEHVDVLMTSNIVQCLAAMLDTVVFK

[15] = biological target: 72 kDa type IV collagenase (Homo sapiens, UniProt P08253); experiment: Dose Response validation of uHTS RPN11 inhibitor hits using a MMP-2 Fluorescence assay.; type: functional
[16] = biological target: Prothrombin (Bos taurus, UniProt P00735); experiment: thrombin protease inhibitors – biochemical, fluorescence polarization, uHTS hits, dose response (AID 602369); type: functional
[17] = biological target: T2, Aryl hydrocarbon receptor (Homo sapiens, UniProt P35869); details: Potency;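 also: confirmatory quantitative high-throughput screen measuring activation of the AhR signaling pathway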
T2 sequence (P35869 whole entry): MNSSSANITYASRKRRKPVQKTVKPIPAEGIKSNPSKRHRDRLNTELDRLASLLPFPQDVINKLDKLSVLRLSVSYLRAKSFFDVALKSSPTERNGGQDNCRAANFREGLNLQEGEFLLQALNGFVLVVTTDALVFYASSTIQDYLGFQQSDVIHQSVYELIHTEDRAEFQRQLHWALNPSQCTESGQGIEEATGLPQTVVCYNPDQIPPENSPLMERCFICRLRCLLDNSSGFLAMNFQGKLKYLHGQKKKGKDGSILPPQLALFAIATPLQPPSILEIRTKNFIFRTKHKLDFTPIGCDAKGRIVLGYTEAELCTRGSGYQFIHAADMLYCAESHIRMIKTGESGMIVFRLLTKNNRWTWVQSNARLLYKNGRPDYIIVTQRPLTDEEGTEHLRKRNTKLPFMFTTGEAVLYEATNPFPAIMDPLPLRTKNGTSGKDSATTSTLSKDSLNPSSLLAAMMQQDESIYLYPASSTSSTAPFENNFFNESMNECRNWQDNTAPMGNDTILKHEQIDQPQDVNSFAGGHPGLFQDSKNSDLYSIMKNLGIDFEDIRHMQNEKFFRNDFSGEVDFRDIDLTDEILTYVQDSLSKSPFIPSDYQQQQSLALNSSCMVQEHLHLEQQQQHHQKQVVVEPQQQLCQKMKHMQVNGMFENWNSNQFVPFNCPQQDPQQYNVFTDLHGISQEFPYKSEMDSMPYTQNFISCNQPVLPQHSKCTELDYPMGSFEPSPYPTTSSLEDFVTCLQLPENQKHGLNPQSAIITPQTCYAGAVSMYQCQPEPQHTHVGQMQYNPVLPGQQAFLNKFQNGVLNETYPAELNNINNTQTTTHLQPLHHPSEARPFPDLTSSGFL

[18] = biological target: T3, Apoptotic protease-activating factor 1 (Homo sapiens, UniProt O14727); experiment: SAR analysis of small molecule Activators of Apaf-1 in a Fluorescent assay.; type: functional; details: read-out: EC50_Mean;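 also: caspase-3 cleavage of fluorogenic Rh110 DEVD substrate downstream of apoptosome activation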
T3 sequence (O14727 whole entry): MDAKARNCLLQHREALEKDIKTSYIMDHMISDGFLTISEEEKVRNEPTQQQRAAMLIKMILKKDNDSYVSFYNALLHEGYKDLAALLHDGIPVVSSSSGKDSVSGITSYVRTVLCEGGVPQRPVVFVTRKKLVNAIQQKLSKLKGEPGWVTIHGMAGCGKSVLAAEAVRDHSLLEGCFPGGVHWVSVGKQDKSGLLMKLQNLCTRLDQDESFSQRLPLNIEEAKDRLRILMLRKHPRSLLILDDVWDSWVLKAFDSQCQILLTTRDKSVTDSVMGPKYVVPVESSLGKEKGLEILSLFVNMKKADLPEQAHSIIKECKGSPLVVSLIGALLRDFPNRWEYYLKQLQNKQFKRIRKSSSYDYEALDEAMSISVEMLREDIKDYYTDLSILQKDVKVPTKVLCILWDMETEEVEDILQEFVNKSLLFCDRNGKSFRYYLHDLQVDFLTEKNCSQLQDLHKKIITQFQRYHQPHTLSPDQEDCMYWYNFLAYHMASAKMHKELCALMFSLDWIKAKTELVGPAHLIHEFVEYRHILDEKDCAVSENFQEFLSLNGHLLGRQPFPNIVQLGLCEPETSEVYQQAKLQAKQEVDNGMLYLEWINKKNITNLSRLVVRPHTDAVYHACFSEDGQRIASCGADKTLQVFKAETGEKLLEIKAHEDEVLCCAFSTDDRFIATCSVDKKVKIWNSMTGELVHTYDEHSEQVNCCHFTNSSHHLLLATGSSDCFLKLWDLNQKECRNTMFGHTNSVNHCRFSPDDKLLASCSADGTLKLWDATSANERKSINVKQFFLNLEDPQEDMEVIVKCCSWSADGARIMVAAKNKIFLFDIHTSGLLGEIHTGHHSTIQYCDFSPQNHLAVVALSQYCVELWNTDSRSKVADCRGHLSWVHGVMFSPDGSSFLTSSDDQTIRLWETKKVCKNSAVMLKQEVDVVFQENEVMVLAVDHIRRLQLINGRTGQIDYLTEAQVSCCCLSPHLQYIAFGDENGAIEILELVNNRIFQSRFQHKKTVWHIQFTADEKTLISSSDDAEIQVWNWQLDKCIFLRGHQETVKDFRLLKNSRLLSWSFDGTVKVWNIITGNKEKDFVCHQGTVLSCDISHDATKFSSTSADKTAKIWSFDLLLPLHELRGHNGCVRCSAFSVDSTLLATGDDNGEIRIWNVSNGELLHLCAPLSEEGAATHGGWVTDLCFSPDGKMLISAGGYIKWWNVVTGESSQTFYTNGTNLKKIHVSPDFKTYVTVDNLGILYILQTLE

[19] = biological target: Serine/threonine-protein kinase pim-1 (Homo sapiens, UniProt P11309); type: functional
Serine/threonine-protein kinase pim-1, sequence (P11309 whole entry): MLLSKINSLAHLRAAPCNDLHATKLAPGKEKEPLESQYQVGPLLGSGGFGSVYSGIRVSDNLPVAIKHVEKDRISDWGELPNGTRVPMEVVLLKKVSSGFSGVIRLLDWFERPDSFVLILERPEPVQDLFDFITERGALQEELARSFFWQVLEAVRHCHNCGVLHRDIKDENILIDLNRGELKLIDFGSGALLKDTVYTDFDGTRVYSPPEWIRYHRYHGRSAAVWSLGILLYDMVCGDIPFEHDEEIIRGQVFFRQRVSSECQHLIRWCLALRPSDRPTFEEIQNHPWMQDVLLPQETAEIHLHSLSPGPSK

[20] = biological target: Cell division cycle 7-related protein kinase (Homo sapiens, UniProt O00311); type: functional;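 also: value obtained from a kinome-wide kinase panel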
Cell division cycle 7-related protein kinase, sequence (O00311 whole entry): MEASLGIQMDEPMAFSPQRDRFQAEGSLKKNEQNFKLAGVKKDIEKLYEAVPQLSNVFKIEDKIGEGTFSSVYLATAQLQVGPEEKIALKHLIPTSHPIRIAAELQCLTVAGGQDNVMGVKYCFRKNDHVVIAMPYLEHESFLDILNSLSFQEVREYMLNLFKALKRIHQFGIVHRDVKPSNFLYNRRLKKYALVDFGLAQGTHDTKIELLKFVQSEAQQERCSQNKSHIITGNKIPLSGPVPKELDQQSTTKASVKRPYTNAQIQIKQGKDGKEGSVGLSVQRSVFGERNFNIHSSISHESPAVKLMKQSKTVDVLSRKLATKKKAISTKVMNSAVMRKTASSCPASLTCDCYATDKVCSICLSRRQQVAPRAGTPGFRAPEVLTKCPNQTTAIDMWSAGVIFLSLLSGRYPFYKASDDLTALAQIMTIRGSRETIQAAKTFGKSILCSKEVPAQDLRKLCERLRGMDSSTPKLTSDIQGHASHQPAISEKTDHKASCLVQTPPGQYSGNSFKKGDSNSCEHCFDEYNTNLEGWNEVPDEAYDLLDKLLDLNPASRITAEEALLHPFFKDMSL

[21] = biological target: Homeodomain-interacting protein kinase 2 (Homo sapiens, UniProt Q9H2X6); type: functional;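 also: measured within a kinome-wide kinase profiling panel, HIPK2 being one panel member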
[22] = biological target: Interleukin-1 receptor-associated kinase 4 (Homo sapiens, UniProt Q9NWZ3); type: functional
Interleukin-1 receptor-associated kinase 4, sequence (Q9NWZ3 whole entry): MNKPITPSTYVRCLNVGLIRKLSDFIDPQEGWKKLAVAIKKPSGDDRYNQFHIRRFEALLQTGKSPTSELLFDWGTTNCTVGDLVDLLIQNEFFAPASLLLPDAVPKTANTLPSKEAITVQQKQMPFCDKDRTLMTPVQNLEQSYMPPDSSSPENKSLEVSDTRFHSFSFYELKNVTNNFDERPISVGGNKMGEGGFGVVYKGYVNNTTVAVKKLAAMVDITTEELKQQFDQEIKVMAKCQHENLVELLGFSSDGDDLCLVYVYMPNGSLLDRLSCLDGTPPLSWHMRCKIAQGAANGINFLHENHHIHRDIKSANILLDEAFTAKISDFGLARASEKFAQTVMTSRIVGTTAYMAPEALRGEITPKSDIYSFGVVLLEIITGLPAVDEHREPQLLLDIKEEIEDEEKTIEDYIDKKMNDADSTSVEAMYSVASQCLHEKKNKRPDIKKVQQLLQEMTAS

[23] = biological target: Glycogen synthase kinase-3 beta (Homo sapiens, UniProt P49841); type: functional;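 also: value comes from a broad kinome profiling panel, with GSK3B as the panel member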
Glycogen synthase kinase-3 beta, sequence (P49841 whole entry): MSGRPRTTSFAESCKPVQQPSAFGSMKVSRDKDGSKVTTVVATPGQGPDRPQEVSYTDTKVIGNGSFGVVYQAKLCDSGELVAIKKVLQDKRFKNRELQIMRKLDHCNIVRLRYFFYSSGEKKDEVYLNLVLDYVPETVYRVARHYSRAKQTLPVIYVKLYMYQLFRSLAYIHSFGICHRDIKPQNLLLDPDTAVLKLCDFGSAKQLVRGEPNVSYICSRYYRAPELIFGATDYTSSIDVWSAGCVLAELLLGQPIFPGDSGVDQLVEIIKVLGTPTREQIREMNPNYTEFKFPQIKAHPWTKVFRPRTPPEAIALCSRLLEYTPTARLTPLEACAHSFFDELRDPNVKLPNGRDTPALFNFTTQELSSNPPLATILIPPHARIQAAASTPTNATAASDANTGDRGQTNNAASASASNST

[24] = biological target: cAMP-dependent protein kinase catalytic subunit alpha (Homo sapiens, UniProt P17612); type: functional
[25] = biological target: Dual specificity protein kinase CLK4 (Homo sapiens, UniProt Q9HAZ1); type: functional
[26] = biological target: Mitogen-activated protein kinase kinase kinase kinase 4 (Homo sapiens, UniProt O95819); type: functional
Mitogen-activated protein kinase kinase kinase kinase 4, sequence (O95819 whole entry): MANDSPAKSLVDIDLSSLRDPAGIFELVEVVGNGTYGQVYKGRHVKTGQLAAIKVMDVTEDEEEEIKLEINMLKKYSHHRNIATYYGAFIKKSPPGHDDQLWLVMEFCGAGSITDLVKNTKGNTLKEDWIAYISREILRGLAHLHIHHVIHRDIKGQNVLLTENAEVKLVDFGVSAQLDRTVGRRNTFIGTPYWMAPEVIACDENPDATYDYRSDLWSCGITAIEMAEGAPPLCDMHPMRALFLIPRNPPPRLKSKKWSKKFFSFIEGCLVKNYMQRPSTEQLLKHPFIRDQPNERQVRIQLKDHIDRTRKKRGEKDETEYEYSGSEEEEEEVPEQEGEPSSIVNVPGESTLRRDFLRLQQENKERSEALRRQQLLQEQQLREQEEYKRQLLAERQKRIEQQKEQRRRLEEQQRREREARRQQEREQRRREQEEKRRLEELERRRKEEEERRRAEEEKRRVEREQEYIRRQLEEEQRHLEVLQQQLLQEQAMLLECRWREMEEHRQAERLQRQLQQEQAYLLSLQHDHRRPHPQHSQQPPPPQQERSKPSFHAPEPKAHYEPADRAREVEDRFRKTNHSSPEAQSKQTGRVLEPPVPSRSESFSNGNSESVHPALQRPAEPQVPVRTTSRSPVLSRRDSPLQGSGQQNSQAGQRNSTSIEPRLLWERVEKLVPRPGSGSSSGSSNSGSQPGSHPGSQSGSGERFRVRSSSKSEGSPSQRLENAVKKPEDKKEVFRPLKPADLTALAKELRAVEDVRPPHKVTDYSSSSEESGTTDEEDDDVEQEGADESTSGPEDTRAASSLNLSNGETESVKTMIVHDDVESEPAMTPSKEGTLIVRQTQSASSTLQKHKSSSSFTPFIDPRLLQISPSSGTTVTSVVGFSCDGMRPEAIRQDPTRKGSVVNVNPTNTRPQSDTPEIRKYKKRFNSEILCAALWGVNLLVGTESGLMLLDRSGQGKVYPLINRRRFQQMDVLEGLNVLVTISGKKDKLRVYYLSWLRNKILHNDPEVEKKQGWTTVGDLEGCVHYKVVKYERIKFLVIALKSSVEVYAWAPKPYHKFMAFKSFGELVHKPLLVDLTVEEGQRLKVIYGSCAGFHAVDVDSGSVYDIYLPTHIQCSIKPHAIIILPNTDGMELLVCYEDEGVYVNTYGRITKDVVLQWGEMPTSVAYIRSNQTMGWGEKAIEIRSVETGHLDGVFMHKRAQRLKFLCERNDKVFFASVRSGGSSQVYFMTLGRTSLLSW

[27] = biological target: T4, Interleukin-8 (Homo sapiens, UniProt P10145); experiment: Dose Response confirmation of uHTS small molecule hits for cystic fibrosis induced NFkb Inhibitors in a TNFa-induced IL8 counterscreen.; type: functional; details: read-out: IC50_Mean
T4 sequence (P10145 whole entry): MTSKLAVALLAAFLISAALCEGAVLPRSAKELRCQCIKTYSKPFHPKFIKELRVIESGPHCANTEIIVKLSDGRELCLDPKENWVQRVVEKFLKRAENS

[28] = biological target: T5, DNA repair and recombination protein RAD54-like (Homo sapiens, UniProt Q92698); experiment: RAD54 Holliday junction migration blockers – biochemical, fluorescence, cherry-picked samples, dose series, confirmation (AID 651657); type: functional
T5 sequence (Q92698 whole entry): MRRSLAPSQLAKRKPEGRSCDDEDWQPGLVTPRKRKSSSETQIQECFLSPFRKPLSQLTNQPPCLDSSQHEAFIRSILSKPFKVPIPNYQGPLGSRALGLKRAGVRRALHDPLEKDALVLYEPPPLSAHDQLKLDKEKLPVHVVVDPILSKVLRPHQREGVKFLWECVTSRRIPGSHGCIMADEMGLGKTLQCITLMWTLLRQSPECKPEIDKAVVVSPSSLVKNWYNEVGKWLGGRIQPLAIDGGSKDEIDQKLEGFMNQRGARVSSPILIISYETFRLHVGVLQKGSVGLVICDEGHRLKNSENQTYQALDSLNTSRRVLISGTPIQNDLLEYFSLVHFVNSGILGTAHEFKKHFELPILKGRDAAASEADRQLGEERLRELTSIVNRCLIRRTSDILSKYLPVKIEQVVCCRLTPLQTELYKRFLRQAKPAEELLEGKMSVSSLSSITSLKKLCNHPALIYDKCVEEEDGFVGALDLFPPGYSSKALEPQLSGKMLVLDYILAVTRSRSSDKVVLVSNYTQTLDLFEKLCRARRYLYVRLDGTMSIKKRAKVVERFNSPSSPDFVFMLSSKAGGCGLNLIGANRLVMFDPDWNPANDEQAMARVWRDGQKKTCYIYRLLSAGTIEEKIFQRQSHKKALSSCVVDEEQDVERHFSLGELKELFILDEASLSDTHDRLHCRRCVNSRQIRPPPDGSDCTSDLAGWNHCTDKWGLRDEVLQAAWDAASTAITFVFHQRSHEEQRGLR

[29] = biological target: T4, Interleukin-8; experiment: Dose Response confirmation of uHTS small molecule hits for cystic fibrosis induced NFkb Inhibitors in a PAF-induced IL8 counterscreen.; type: functional; details: read-out: IC50_Mean
[30] = biological target: Kallikrein-7 (Homo sapiens, UniProt P49862); experiment: Fluorescence Intensity-based biochemical primary high throughput dose response assay to identify activators of kallikrein-7 (K7) zymogen.
Kallikrein-7, sequence (P49862 whole entry): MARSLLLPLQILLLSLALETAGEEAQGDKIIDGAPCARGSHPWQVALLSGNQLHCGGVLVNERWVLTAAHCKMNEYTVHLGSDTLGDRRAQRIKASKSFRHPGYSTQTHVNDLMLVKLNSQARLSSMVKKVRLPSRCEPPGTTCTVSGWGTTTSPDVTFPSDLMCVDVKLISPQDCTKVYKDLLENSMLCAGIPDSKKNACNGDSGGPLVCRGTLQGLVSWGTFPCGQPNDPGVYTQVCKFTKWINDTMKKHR

For `N#C/C(=C\c1cn(CCOc2ccccc2F)c2ccccc12)C(=O)NCc1cccs1`, the EC50 [1] was > 89.2 µM (inactive).

With `Cc1ccc(Nc2nc(N)nc(CN3CCCCCC3)n2)cc1` the AC50 [2] was 117 µM (active) and the IC50 [3] was > 20 µM (inactive).

For `O=C(Oc1c(Cl)cc(Cl)c2cccnc12)c1ccco1`, the EC50 [4] was 56.7 µM (inconclusive), the EC50 [5] was 0.098 µM (active) and the EC50 [6] was 2.12 µM (active). The EC50 [7] was > 180 µM (inactive), the EC50 [8] was 10.1 µM (active) and the IC50 [9] was > 66.6 µM (inactive). The AC50 [10] was < 0.195 µM (active), the EC50 [11] was 15.3 µM (active) and the AC50 [12] was 2.63 µM (active).

With `COC(=O)Nc1csc2c1NC(=O)CCCC2` the IC50 [13] was 5.54 µM (active).

With `COc1ccc(Cc2c(C(C)(C)C)nc3ccc(Cl)cn23)c(C)c1` the IC50 [14] was 22.5 µM (active), the IC50 [15] was > 100 µM (inactive) and the IC50 [16] was 17.7 µM (active).

For `O=C(Oc1ccccc1)c1cccc(C(=O)Oc2ccccc2)c1`, the AC50 [17] was 7.94 µM (inconclusive).

For `CC(C)C(=O)Nc1ccc(N)cc1`, the EC50 [18] was > 100 µM (inactive).

For `COCC(C)Nc1cc(-c2c[nH]c3ncccc23)cc(Cl)n1` (stereo not given), the Ki [19] was 0.794 µM (active), the Ki [20] was 0.002 µM (active) and the Ki [21] was 0.0631 µM (active). For the same molecule, the Ki [22] was 0.794 µM (active), the Ki [23] was 0.251 µM (active) and the Ki [24] was 0.251 µM (active). The Ki [25] was 0.00631 µM (active) and the Ki [26] was 0.01 µM (active).

With `COc1ccc2c(c1)[nH]c1c(C)nccc12` [HARMINE HYDROCHLORIDE] the IC50 [27] was > 79 µM (inactive), the AC50 [28] was 14.4 µM (active) and the IC50 [29] was 6.96 µM (active). For the same molecule, the EC50 [30] was 24.8 µM (inactive).
